Test results as given in article PMC11247487, “Discovery of Dual MER/AXL Kinase Inhibitors as Bifunctional Small Molecules for Inhibiting Tumor Growth and Enhancing Tumor Immune Microenvironment” (Journal of Medicinal Chemistry, 2024).

Columns and labels:
[1] = biological target: T1, MER (Homo sapiens, UniProt Q12866); experiment: MER enzyme inhibition assay (in-house Kinase-Glo); type: biochemical
T1 construct: A purified kinase (MER or AXL) was incubated with a compound or DMSO
T1 sequence (Q12866 21-999): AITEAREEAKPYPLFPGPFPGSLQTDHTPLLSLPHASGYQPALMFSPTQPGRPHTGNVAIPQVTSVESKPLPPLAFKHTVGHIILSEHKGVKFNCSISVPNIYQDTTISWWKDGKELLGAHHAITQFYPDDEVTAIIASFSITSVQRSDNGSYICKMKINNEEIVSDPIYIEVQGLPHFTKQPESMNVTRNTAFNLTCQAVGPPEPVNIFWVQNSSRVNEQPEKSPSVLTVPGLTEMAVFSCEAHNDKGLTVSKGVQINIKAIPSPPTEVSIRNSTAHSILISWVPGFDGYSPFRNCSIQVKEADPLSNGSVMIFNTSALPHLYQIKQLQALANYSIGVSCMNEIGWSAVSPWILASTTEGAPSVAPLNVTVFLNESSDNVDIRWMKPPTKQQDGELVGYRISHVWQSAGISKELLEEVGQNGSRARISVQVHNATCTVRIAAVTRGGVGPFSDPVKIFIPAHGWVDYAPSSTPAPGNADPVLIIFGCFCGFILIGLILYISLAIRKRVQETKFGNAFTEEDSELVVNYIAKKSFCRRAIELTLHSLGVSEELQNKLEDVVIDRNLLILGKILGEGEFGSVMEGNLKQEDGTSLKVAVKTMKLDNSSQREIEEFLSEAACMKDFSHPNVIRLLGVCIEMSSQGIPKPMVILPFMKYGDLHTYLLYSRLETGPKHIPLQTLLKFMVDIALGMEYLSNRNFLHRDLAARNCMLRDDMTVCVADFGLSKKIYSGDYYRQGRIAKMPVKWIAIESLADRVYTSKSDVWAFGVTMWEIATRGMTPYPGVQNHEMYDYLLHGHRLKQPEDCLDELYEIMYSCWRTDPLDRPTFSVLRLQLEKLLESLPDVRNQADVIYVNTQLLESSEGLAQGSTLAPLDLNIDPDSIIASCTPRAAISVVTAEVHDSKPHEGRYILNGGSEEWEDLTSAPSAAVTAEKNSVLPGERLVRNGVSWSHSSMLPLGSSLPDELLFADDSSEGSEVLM

[2] = biological target: T2, AXL (Homo sapiens, UniProt P30530); experiment: AXL enzyme inhibition assay (ADP-Glo); type: biochemical
T2 construct: A purified kinase (MER or AXL) was incubated with a compound or DMSO
T2 sequence (P30530 26-894): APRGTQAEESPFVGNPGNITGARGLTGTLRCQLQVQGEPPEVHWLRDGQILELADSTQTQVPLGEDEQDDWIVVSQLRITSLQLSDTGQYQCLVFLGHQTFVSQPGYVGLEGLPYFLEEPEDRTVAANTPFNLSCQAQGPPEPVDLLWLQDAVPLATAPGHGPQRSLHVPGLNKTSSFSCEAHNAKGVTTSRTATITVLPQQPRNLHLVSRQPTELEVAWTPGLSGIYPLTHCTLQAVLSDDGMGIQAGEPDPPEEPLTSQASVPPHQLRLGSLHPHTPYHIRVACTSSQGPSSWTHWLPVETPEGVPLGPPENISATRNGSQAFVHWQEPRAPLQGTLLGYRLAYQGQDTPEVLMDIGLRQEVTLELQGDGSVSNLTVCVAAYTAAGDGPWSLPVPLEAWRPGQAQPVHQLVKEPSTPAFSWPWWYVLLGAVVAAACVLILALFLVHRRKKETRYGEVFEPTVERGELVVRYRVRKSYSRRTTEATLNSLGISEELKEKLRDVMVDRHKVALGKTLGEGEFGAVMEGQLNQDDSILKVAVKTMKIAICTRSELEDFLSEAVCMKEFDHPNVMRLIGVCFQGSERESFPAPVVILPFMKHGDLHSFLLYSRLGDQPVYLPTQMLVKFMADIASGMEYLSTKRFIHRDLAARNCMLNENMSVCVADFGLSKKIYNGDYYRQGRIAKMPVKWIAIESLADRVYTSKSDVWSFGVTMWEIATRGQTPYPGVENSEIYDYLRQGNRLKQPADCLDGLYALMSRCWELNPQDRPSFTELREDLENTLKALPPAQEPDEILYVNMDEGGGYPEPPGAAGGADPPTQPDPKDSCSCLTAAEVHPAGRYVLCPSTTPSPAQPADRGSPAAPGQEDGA

[3] = biological target: EGFR^WT (Homo sapiens, UniProt P00533); experiment: EGFR^WT in-house Kinase-Glo assay; type: biochemical; details: read-out: EGFR^WT inh. @ 1 μM
Chain of EGFR^WT (P00533 25-1210): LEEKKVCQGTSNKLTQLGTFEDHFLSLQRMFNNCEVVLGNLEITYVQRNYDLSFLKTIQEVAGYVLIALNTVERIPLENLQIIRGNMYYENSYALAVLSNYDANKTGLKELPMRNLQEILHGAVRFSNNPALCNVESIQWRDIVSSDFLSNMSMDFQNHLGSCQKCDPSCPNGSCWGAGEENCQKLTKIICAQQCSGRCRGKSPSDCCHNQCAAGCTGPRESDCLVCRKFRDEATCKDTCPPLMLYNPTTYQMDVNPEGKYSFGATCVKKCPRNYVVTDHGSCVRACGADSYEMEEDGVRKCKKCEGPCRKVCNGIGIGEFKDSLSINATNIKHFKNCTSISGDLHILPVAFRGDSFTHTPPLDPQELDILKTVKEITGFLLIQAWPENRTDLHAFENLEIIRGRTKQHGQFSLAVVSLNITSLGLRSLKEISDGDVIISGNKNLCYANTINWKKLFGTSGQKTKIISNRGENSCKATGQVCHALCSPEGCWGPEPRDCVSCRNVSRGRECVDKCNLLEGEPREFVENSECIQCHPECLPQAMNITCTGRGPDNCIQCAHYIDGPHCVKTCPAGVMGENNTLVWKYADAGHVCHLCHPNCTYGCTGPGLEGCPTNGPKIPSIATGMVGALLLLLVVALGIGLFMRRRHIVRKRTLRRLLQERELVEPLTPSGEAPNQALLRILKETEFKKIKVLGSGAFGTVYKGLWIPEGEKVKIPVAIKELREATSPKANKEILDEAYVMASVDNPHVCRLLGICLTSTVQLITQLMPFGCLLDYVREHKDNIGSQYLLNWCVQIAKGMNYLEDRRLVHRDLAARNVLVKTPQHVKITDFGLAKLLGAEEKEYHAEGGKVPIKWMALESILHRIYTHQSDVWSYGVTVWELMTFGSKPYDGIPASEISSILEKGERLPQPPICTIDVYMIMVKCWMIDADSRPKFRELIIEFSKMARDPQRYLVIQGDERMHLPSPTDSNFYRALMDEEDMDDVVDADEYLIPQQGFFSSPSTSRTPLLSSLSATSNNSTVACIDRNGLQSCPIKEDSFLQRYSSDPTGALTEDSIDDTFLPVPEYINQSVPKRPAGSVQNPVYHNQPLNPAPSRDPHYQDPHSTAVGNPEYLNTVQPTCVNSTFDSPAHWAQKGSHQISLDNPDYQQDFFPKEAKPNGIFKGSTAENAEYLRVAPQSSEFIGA

[4] = biological target: EGFR^DM (T790M/L858R) (Homo sapiens, UniProt P00533, L858R/T790M); experiment: EGFR^DM in-house Kinase-Glo assay; type: biochemical; details: cell marked b = IC50 value
Chain of EGFR^DM (T790M/L858R) (P00533 25-1210 T790M/L858R): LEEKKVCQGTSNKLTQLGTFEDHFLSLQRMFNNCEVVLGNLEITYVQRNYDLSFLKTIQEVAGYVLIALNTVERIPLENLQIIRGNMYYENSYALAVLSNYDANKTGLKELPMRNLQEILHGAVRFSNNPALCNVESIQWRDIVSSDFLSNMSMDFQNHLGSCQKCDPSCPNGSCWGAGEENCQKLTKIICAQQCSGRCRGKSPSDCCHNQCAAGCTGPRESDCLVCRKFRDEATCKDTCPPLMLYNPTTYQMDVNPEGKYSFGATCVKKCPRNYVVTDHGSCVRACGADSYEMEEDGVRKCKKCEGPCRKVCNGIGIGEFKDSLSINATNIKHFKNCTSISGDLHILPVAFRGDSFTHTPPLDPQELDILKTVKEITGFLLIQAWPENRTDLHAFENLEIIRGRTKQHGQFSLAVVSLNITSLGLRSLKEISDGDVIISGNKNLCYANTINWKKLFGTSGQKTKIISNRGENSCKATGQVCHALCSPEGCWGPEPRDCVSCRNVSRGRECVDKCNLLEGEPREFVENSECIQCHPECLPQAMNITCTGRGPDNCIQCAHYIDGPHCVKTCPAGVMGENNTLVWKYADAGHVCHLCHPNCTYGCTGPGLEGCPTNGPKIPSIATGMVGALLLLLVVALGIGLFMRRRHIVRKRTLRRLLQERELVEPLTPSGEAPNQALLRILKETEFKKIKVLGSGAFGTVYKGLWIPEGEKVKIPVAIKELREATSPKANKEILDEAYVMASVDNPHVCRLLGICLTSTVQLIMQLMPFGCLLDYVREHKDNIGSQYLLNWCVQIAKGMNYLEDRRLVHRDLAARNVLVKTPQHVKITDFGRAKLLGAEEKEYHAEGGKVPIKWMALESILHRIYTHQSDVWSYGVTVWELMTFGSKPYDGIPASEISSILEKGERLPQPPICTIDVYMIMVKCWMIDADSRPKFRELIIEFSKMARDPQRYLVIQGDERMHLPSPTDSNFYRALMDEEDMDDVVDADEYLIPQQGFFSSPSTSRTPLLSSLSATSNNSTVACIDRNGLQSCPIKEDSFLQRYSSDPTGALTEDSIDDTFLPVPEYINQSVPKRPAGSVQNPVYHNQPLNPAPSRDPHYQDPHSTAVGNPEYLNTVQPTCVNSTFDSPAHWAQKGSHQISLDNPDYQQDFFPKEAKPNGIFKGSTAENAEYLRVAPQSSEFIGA

[5] = test system: Ba/F3-MER cells; experiment: Cell viability assay (MTS); type: cell-based; details: 72 h

Structure (SMILES) | IC50 [5] [nM] | also measured
C=CC(=O)Nc1cccc(-c2c(-c3ccccc3)oc3ncnc(Oc4ccc(NC(=O)C5(C(=O)Nc6ccc(F)cc6)CC5)cc4)c23)c1 [Compound 11] | 618 | inhibition at 1 µM ([1]; read-out: MER inh. @ 1 μM): 14%; inhibition at 1 µM ([2]; read-out: AXL inh. @ 1 μM): 96%; inhibition at 1 µM [3]: 40%; IC50 [4]: 42 nM
Nc1cccc(-c2coc3ncnc(Oc4ccc(NC(=O)c5cccn(-c6ccc(F)cc6)c5=O)cc4)c23)c1 [Compound 18, N-(4-{[5-(3-Aminophenyl)furo[2,3-d]pyrimidin-4-yl]oxy}phenyl)-1-(4-fluorophenyl)-2-oxo-1,2-dihydropyridine-3-carboxamide] | 910 | 
Nc1cccc(-c2c(Br)oc3ncnc(Oc4ccc(NC(=O)c5cccn(-c6ccc(F)cc6)c5=O)cc4)c23)c1 [Compound 19, N-(4-{[5-(3-Aminophenyl)-6-bromofuro[2,3-d]pyrimidin-4-yl]oxy}phenyl)-1-(4-fluorophenyl)-2-oxo-1,2-dihydropyridine-3-carboxamide] | 428 | 
Cc1oc2ncnc(Oc3ccc(NC(=O)c4cccn(-c5ccc(F)cc5)c4=O)cc3)c2c1-c1cccc(N)c1 [Compound 20, N-(4-{[5-(3-Aminophenyl)-6-methylfuro[2,3-d]pyrimidin-4-yl]oxy}phenyl)-1-(4-fluorophenyl)-2-oxo-1,2-dihydropyridine-3-carboxamide] | 211 | 
Nc1cccc(-c2c(-c3cn[nH]c3)oc3ncnc(Oc4ccc(NC(=O)c5cccn(-c6ccc(F)cc6)c5=O)cc4)c23)c1 [Compound 21, N-(4-{[5-(3-Aminophenyl)-6-(1H-pyrazol-4-yl)furo[2,3-d]pyrimidin-4-yl]oxy}phenyl)-1-(4-fluorophenyl)-2-oxo-1,2-dihydropyridine-3-carboxamide] | 10.6 | 
Cc1nn(C)cc1-c1oc2ncnc(Oc3ccc(NC(=O)c4cccn(-c5ccc(F)cc5)c4=O)cc3)c2c1-c1cccc(N)c1 [Compound 23, N-(4-{[5-(3-Aminophenyl)-6-(1,3-dimethyl-1H-pyrazol-4-yl)furo[2,3-d]pyrimidin-4-yl]oxy}phenyl)-1-(4-fluorophenyl)-2-oxo-1,2-dihydropyridine-3-carboxamide] | 5.9 | 
Cc1noc(C)c1-c1oc2ncnc(Oc3ccc(NC(=O)c4cccn(-c5ccc(F)cc5)c4=O)cc3)c2c1-c1cccc(N)c1 [Compound 24, N-(4-{[5-(3-Aminophenyl)-6-(3,5-dimethyl-1,2-oxazol-4-yl)furo[2,3-d]pyrimidin-4-yl]oxy}phenyl)-1-(4-fluorophenyl)-2-oxo-1,2-dihydropyridine-3-carboxamide] | 1050 | 

Now from value to compound, other results behind:

IC50 [5] [nM] | Structure (SMILES) | also measured
77.1 | Nc1cccc(-c2c(-c3cc[nH]n3)oc3ncnc(Oc4ccc(NC(=O)c5cccn(-c6ccc(F)cc6)c5=O)cc4)c23)c1 [Compound 25, N-(4-{[5-(3-Aminophenyl)-6-(1H-pyrazol-3-yl)furo[2,3-d]pyrimidin-4-yl]oxy}phenyl)-1-(4-fluorophenyl)-2-oxo-1,2-dihydropyridine-3-carboxamide] | 
4.5 | Nc1cccc(-c2c(-c3ccsc3)oc3ncnc(Oc4ccc(NC(=O)c5cccn(-c6ccc(F)cc6)c5=O)cc4)c23)c1 [Compound 26, N-(4-{[5-(3-Aminophenyl)-6-(thiophen-3-yl)furo[2,3-d]pyrimidin-4-yl]oxy}phenyl)-1-(4-fluorophenyl)-2-oxo-1,2-dihydropyridine-3-carboxamide] | 
172 | Cn1cc(-c2cc3c(Oc4ccc(NC(=O)c5cccn(-c6ccc(F)cc6)c5=O)cc4)ncnc3o2)cn1 [Compound 27, 1-(4-Fluorophenyl)-N-(4-{[6-(1-methyl-1H-pyrazol-4-yl)furo[2,3-d]pyrimidin-4-yl]oxy}phenyl)-2-oxo-1,2-dihydropyridine-3-carboxamide] | 
13.4 | CN(C)c1cccc(-c2c(-c3cnn(C)c3)oc3ncnc(Oc4ccc(NC(=O)c5cccn(-c6ccc(F)cc6)c5=O)cc4)c23)c1 [Compound 30, N-[4-({5-[3-(Dimethylamino)phenyl]-6-(1-methyl-1H-pyrazol-4-yl)furo[2,3-d]pyrimidin-4-yl}oxy)phenyl]-1-(4-fluorophenyl)-2-oxo-1,2-dihydropyridine-3-carboxamide] | 
5 | CNCc1cccc(-c2c(-c3cnn(C)c3)oc3ncnc(Oc4ccc(NC(=O)c5cccn(-c6ccc(F)cc6)c5=O)cc4)c23)c1 [Compound 32, 1-(4-Fluorophenyl)-N-{4-[(5-{3-[(methylamino)methyl]phenyl}-6-(1-methyl-1H-pyrazol-4-yl)furo[2,3-d]pyrimidin-4-yl)oxy]phenyl}-2-oxo-1,2-dihydropyridine-3-carboxamide] | 
2.1 | Cn1cc(-c2oc3ncnc(Oc4ccc(NC(=O)c5cccn(-c6ccc(F)cc6)c5=O)cc4)c3c2-c2ccccc2N)cn1 [Compound 36, N-(4-{[5-(2-Aminophenyl)-6-(1-methyl-1H-pyrazol-4-yl)furo[2,3-d]pyrimidin-4-yl]oxy}phenyl)-1-(4-fluorophenyl)-2-oxo-1,2-dihydropyridine-3-carboxamide] | 
1.2 | Cn1cc(-c2oc3ncnc(Oc4ccc(NC(=O)c5cccn(-c6ccc(F)cc6)c5=O)cc4)c3c2-c2ccc(N)cc2)cn1 [Compound 37, N-(4-{[5-(4-Aminophenyl)-6-(1-methyl-1H-pyrazol-4-yl)furo[2,3-d]pyrimidin-4-yl]oxy}phenyl)-1-(4-fluorophenyl)-2-oxo-1,2-dihydropyridine-3-carboxamide] | 
0.4 | CC(=O)Nc1ccc(-c2c(-c3cnn(C)c3)oc3ncnc(Oc4ccc(NC(=O)c5cccn(-c6ccc(F)cc6)c5=O)cc4)c23)cc1 [Compound 38, N-[4-({5-[4-(Acetylamino)phenyl]-6-(1-methyl-1H-pyrazol-4-yl)furo[2,3-d]pyrimidin-4-yl}oxy)phenyl]-1-(4-fluorophenyl)-2-oxo-1,2-dihydropyridine-3-carboxamide] | 
1.6 | Cn1cc(-c2oc3ncnc(Oc4ccc(NC(=O)c5cccn(-c6ccc(F)cc6)c5=O)cc4)c3c2-c2ccc(N3CCNCC3)cc2)cn1 [Compound 40, 1-(4-Fluorophenyl)-N-[4-({6-(1-methyl-1H-pyrazol-4-yl)-5-[4-(piperazin-1-yl)phenyl]furo[2,3-d]pyrimidin-4-yl}oxy)phenyl]-2-oxo-1,2-dihydropyridine-3-carboxamide] | IC50 [1]: 2 nM; IC50 [2]: 8 nM
0.7 | CN1CCN(c2ccc(-c3c(-c4cnn(C)c4)oc4ncnc(Oc5ccc(NC(=O)c6cccn(-c7ccc(F)cc7)c6=O)cc5)c34)cc2)CC1 [Compound 41, 1-(4-Fluorophenyl)-N-[4-({5-[4-(4-methylpiperazin-1-yl)phenyl]-6-(1-methyl-1H-pyrazol-4-yl)furo[2,3-d]pyrimidin-4-yl}oxy)phenyl]-2-oxo-1,2-dihydropyridine-3-carboxamide] | IC50 [1]: 5.8 nM; IC50 [2]: 15.8 nM
